Consider 10 compounds from ChEMBL document CHEMBL5465560, “Selectivity Literature for EUbOPEN Chemogenomic Library” (2024).

The target in assay [1] is T1, Cyclin-dependent kinase-like 5 (Homo sapiens) (UniProt O76039).
T1 sequence (whole entry): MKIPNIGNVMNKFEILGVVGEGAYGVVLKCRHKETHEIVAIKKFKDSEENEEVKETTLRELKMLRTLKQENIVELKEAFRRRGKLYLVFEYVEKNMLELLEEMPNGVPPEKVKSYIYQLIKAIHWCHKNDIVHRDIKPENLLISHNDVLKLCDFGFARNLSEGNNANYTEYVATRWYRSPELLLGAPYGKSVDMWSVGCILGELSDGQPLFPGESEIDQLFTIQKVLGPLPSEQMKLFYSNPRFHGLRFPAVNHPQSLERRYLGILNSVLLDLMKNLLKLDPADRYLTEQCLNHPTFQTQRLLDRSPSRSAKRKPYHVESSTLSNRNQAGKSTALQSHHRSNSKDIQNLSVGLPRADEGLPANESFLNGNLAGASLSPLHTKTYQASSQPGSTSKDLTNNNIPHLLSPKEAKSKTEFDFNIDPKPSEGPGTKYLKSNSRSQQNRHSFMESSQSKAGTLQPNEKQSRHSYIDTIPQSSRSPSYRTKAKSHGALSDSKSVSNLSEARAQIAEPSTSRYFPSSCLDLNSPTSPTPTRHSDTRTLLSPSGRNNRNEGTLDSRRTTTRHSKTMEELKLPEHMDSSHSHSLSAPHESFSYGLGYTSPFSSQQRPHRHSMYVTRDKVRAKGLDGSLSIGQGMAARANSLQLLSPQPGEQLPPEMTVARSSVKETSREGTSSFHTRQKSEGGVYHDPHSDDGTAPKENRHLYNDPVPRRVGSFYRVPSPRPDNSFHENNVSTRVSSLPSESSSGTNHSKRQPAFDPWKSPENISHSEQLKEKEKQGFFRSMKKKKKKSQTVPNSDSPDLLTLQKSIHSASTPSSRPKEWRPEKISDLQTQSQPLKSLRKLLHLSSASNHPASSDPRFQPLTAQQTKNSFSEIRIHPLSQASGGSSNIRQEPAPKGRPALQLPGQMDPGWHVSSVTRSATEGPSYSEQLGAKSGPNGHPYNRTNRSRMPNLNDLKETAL
The assay can be described thus: Selectivity interaction (Kinase panel (Z-LYTE Assay)) EUB0001632a CDKL5. Conditions: at 10 µM.

The target of assay [2] is Tyrosine-protein kinase Fes/Fps (Homo sapiens) (UniProt P07332). In words: Selectivity interaction (KinomeScan (DiscoverX)) EUB0000695a FES. Conditions: at 100 nM.
Sequence of Tyrosine-protein kinase Fes/Fps (Homo sapiens) (P07332 whole entry): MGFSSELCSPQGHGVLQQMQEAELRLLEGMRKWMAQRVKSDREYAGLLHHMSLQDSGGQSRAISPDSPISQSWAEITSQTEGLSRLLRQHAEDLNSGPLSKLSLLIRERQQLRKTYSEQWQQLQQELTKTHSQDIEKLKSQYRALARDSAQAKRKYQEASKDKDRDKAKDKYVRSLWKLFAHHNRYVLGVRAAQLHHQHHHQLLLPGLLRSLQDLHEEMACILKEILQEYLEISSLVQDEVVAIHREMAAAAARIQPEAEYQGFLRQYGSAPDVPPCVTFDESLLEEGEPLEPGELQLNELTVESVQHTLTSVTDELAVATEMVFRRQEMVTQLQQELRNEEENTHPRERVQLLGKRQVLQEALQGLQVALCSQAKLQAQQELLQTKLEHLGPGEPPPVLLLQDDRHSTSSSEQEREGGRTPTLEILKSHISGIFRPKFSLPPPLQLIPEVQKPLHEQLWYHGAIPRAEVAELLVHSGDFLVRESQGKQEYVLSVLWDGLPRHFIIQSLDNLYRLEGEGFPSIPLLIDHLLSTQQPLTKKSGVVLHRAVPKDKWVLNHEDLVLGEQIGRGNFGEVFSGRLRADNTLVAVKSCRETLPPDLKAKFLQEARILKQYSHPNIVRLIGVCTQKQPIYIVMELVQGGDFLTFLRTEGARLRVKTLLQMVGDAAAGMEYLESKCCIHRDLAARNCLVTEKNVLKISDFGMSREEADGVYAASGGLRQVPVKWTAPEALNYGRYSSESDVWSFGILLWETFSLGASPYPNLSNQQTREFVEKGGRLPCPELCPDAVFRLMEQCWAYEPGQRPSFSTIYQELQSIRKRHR
The target of assay [3] is T2, Interleukin-1 receptor-associated kinase 4 (Homo sapiens) (UniProt Q9NWZ3).
T2 sequence (whole entry): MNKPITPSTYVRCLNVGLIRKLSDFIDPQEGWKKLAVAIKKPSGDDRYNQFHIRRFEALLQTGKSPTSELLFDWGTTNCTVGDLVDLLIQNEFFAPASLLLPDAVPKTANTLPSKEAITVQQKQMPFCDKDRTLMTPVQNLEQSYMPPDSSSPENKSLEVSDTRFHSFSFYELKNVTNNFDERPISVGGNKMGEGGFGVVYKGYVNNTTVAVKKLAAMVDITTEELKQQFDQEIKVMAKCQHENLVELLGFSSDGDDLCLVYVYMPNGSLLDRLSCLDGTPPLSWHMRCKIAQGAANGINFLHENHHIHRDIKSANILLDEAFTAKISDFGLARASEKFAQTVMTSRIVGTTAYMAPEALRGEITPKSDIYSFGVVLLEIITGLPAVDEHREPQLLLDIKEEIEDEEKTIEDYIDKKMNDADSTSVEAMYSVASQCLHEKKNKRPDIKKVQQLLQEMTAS
The assay can be described thus: Selectivity interaction (SelectScreen profiling (Invitrogen)) EUB0000607a IRAK4. Conditions: at 2 µM.

Assay [4] has as its target Serine/threonine-protein kinase RIO2 (Homo sapiens) (UniProt Q9BVS4). The assay can be described thus: Selectivity interaction (KinomeScan (DiscoverX)) EUB0001550a RIOK2. The note with it: at 1 µM.
Assay [5] deals with T3, Serine/threonine-protein kinase Nek2 (Homo sapiens) (UniProt P51955).
T3 sequence (whole entry): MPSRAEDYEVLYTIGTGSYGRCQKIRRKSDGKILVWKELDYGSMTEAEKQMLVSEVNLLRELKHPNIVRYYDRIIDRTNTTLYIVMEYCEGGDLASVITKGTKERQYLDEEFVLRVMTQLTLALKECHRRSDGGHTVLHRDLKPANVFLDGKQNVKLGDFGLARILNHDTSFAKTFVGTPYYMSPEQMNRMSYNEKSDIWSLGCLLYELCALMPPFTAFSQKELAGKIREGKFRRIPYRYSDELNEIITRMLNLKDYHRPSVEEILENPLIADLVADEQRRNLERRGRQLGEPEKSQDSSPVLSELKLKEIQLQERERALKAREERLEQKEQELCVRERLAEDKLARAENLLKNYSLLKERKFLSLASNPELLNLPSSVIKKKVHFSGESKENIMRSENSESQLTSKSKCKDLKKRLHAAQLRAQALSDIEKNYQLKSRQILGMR
The assay can be described thus: Selectivity interaction (Kinase panel (DSF assay)) EUB0001559a NEK2. Background: Differential scanning fluorimetry follows unfolding on heating by fluorescence.

Assay [6] deals with Serine/threonine-protein kinase PAK 3 (Homo sapiens) (UniProt O75914). The assay can be described thus: Selectivity interaction (KinomeScan (DiscoverX)) EUB0000045b PAK3.
Sequence of Serine/threonine-protein kinase PAK 3 (Homo sapiens) (O75914 whole entry, looked up): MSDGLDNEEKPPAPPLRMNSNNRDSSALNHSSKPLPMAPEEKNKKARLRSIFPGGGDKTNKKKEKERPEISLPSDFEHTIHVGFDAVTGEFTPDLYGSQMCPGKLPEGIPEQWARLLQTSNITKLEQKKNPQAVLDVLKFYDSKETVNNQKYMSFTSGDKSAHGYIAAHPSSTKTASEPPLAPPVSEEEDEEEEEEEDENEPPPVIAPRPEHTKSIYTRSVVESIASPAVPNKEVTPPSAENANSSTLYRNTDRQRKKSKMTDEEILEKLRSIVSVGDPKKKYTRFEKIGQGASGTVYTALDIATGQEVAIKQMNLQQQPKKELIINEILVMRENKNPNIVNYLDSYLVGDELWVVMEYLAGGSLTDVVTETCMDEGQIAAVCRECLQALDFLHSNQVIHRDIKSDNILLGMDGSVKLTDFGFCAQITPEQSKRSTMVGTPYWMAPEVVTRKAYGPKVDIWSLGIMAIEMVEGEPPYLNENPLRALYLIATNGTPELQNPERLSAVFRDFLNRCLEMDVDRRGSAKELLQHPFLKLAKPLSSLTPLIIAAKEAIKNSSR
The target in assay [7] is T4, Phosphatidylinositol 5-phosphate 4-kinase type-2 beta (Homo sapiens) (UniProt P78356).
T4 sequence (whole entry): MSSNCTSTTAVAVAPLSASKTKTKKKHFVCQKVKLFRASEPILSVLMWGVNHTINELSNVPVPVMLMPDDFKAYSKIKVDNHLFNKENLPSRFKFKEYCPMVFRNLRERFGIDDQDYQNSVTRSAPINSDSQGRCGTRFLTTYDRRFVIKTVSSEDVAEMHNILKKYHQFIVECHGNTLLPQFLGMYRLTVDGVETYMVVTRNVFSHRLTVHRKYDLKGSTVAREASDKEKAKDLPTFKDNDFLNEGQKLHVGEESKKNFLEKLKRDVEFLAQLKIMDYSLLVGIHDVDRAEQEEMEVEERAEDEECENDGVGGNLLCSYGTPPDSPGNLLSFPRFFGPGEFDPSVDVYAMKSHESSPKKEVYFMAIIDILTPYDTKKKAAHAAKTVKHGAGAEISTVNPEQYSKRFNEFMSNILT
In words: Selectivity interaction (KinomeScan (DiscoverX)) EUB0000045b PIP4K2B.

For assay [8], the target named is Ribosomal protein S6 kinase alpha-6 (Homo sapiens, UniProt Q9UK32). In words: Selectivity interaction (KinomeScan (DiscoverX)) EUB0000618a RPS6KA6. Conditions: at 10 µM.
Assay [9] has as its target Tyrosine-protein kinase JAK2 (Homo sapiens, UniProt O60674). In words: Selectivity interaction (SelectScreen Kinase Profiling (Thermo Fisher Scientific)) EUB0001558a JAK2. Conditions: at 1 µM.
The target in assay [10] is Mitogen-activated protein kinase 1 (Homo sapiens, UniProt P28482). In words: Selectivity interaction (Millipore kinase profiler) EUB0000124b MAPK1. The note with it: at 10 µM.
Sequence of Mitogen-activated protein kinase 1 (P28482 whole entry): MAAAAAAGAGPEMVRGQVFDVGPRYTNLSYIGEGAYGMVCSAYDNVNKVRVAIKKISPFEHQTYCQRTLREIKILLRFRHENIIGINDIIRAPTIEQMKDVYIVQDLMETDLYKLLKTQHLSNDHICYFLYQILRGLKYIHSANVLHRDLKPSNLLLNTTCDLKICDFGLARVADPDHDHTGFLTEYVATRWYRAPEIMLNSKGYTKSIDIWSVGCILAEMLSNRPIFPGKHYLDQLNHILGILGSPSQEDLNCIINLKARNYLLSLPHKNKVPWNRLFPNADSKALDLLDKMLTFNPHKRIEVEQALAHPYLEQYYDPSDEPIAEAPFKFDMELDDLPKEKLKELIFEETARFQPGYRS
In assay [11] the target is Vascular endothelial growth factor receptor 1 (Homo sapiens) (UniProt P17948). The assay can be described thus: Selectivity interaction (KinomeScan (DiscoverX)) EUB0000229b FLT1. The note with it: at 10 µM.
Sequence of Vascular endothelial growth factor receptor 1 (Homo sapiens) (P17948 whole entry): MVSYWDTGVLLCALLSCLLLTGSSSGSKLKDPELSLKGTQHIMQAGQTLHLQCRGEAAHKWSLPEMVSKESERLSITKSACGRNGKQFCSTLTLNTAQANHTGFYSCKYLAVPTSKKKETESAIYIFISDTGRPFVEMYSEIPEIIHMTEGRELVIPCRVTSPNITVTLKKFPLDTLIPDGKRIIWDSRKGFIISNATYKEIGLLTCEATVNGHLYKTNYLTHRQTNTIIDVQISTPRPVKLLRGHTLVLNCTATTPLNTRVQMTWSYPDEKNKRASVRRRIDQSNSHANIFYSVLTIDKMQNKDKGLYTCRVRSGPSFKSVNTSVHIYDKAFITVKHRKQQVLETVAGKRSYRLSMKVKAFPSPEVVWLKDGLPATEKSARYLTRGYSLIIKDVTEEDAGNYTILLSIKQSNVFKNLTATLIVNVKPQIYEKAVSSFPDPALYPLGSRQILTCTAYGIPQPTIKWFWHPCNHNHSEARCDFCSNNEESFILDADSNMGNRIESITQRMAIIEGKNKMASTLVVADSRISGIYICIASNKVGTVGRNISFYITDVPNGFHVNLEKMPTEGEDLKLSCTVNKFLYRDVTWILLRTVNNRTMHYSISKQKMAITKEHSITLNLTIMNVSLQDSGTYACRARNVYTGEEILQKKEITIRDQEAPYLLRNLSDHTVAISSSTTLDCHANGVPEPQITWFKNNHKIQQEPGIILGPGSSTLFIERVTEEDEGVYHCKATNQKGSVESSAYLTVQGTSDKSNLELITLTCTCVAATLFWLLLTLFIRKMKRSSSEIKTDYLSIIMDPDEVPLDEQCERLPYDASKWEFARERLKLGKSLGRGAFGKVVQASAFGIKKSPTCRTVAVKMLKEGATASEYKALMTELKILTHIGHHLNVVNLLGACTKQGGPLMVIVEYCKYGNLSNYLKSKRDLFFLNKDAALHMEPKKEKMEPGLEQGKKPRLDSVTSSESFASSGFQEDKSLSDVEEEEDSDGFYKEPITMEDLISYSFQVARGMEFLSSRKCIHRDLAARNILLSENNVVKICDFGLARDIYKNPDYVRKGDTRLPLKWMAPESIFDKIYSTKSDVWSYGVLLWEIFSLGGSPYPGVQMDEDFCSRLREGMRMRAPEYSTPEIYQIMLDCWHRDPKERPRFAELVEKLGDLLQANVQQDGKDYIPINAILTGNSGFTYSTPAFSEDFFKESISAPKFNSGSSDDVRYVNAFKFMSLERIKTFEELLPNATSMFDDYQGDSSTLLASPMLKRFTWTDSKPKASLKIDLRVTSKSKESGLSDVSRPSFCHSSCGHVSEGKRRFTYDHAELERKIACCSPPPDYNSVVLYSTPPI

Sequence of Serine/threonine-protein kinase RIO2 (Homo sapiens) (Q9BVS4 whole entry, looked up): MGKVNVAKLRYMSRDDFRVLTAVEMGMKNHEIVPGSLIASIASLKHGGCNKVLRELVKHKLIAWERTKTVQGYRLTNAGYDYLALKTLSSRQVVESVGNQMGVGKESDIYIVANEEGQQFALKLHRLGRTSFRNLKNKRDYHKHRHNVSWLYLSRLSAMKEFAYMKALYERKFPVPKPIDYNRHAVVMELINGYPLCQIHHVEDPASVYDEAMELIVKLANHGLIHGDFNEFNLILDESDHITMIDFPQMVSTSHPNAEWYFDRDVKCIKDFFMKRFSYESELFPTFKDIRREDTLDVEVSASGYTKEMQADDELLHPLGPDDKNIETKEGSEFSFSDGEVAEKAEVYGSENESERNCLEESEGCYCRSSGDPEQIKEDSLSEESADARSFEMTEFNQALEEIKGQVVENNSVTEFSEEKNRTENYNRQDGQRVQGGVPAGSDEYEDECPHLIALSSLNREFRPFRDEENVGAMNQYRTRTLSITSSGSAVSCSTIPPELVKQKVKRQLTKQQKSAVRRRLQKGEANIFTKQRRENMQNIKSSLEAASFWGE
Sequence of Tyrosine-protein kinase JAK2 (O60674 whole entry): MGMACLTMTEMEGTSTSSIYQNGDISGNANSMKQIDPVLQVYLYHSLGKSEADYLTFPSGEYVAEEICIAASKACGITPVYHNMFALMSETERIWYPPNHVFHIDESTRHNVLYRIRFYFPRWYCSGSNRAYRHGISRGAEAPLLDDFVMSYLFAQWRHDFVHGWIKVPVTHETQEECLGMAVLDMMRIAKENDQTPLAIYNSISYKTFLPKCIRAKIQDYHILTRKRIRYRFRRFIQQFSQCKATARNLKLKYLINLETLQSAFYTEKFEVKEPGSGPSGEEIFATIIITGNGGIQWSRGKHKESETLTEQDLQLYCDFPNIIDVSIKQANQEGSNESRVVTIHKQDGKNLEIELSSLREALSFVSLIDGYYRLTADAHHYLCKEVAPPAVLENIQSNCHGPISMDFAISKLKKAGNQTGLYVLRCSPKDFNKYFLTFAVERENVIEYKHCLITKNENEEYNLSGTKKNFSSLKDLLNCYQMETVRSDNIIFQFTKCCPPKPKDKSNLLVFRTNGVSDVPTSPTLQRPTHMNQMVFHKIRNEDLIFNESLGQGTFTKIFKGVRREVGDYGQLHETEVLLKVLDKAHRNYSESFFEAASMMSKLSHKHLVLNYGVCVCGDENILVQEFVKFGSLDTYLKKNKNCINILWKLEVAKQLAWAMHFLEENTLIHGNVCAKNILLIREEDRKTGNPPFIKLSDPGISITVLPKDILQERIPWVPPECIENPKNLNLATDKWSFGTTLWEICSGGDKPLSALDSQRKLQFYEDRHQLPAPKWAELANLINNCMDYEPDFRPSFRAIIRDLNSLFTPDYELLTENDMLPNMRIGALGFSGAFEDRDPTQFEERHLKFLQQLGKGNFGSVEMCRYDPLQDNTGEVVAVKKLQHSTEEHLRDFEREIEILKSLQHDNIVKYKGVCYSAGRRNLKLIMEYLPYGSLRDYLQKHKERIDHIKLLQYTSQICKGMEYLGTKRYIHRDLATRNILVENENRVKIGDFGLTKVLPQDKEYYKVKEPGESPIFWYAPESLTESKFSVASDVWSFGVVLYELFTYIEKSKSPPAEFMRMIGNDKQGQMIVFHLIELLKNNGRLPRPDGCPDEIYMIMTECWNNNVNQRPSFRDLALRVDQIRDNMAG

`Cn1cc(-n2cnc3c(NCc4nc5cc(Cl)c(Cl)cc5[nH]4)nc(N4CCOCC4)nc32)cn1` had a % of control in assay [1] of 4.16%.

Regarding `Cc1cc(F)c(C(=O)Nc2cccc(-c3nncn3C(C)C)n2)cc1-n1cnc(C2CC2)c1`, in [2], the % of control came to 100%.

Consider `CNC(=O)Nc1ccc(-c2nc(N3CC4CCC(C3)O4)c3cnn(C4CCC5(CC4)OCCO5)c3n2)cc1`, for which the % of inhibition in assay [3] was 3%.

`CN(C)CC#Cc1ccc2[nH]c3c(c2c1)-c1nc(N)ncc1CCC3` returned a % of control in assay [4] of 32%.

`CN(C(=O)c1cnn2cccnc12)c1cc2c(cc1N1CCOCC1)C(=O)N(C[C@@H](F)C(C)(C)O)C2` returned a dTM in assay [5] of 2.1 K.

As to `C=CC(=O)Nc1cc(-n2c(=O)ccc3cnc4ccc(-c5ccc(NS(C)(=O)=O)cc5)cc4c32)ccc1C`, the % of control in [6] (at 1 µM) stood at 92%; in assay [6] (at 10 µM) it was 100%; in assay [7] (at 1 µM) it was 93%; in assay [7] (at 10 µM), 63%.

With `O[C@H]1CC[C@H](Nc2ncc3nc(Nc4c(F)cc(F)cc4F)n([C@H]4CCOC4)c3n2)CC1`, the % of control in assay [8] turned out to be 13%.

In [9], `CC(C)(O)[C@H](F)CN1Cc2cc(NC(=O)c3cnn4cccnc34)c(N3CCOCC3)cc2C1=O` registered a % of inhibition of 80.5%.

For the compound `CC(=O)Nc1cccc(-n2c(=O)n(C3CC3)c(=O)c3c(Nc4ccc(I)cc4F)n(C)c(=O)c(C)c32)c1`, the % of control in [10] stood at 86%.

Regarding `COc1cc(N(C)c2ccnc3ccc(C(F)(F)F)cc23)cc(OC)c1OC`, the % binding in assay [11] was determined as 100%.
